Measured values published in patent US20040097734A1, “Aryl- and heteroarylcarbonylpiperazines and their use for the treatment of benign and malignant oncoses” (priority 2002, published 2004).
Converted amounts (≈) assume the structure as drawn. Like-named read-outs stand apart in the source and are kept apart here.

Columns and labels:
[1] = test system: human cervical carcinoma cell line KB/HeLa; experiment: XTT proliferation assay, KB/HeLa; assay type: cell-based; details: KB/HeLa cells, 45 h incubation
From the text: (§1) The substances according to the invention were investigated for their antiproliferative activity in a proliferation test on established tumor cell lines. The test used determines the cellular dehydrogenase activity and makes possible a determination of the cell vitality and indirectly the cell count. The cell lines used are the human cervical carcinoma cell line KB/HeLa, (ATCC CCL17), the ovarian adenocarcinoma cell line SKOV-3 (ATCC HTB77), the human glioblastoma cell line SF-268 (NCI 503138) and the lung carcinoma cell line NCI-H460 (NCI 503473). In addition, for the investigation of the cell cycle-specific action of the substance, an RKOp27 cell system was used (M. Schmidt et al. Oncogene 19(20):2423-9, 2000). RKO is a human colon carcinoma cell line, in which the cell cycle inhibitor p27^kip1 induced by means of the ecdysone expression system is expressed and can be led to a cell cycle arrest specifically in […]. A nonspecifically acting substance inhibits the proliferation independently of weather the RKO cell is or is not arrested in G1 or G2. Cell cycle-specific substances such as, for example, tubulin inhibitors are, however, only cytotoxic if cells are not arrested and the cell cycle is passed through. In table 1, the cytotoxic and/or growth-inhibiting activities of the compound described with/without expression of p27^kip1 are shown.
(§2) The adherently growing tumor cell lines KB/HeLa, SKOV-3, SF-268 and NCI-H460 were cultured under standard conditions in a fumigation incubator at 37° C., 5% CO2 and 95% atmospheric humidity. On experimental day 1, the cells are detached using trypsin/EDTA and pelleted by centrifugation. Subsequently, the cell pellet is resuspended in the respective culture medium at the corresponding cell count and reacted in a 96-well microtiter plate. The plates are then cultured overnight in the fumigation incubator. The test substances are prepared as 1 mg/ml stock solutions in DMSO and diluted to the appropriate concentrations on experimental day 2 using culture medium. The substances in culture medium are then added to the cells and incubated in the fumigation incubator for 45h. As a control, cells which are not treated with test substance are used. For the XTT assay, 1 mg/ml of XTT (sodium 3′-[1-(phenylaminocarbonyl)-3,4-tetrazolium]-bis(4-methoxy-6-nitro)benzenesulfonic acid) is dissolved in RPMI-1640 medium without Phenol Red. Additionally, a 0.383 mg/ml PMS (N-methyldibenzopyrazine methylsulfate) solution in phosphate-buffered saline solution (PBS) is prepared. On experimental day 4, 75 μl/well of XTT-PMS mixture is pipetted onto the cell plates which in the meantime have been incubated with the test substances for 45 h. For this, shortly before use, the XTT solution is mixed with the PMS solution in the ratio 50:1 (vol:vol). The cell plates are then incubated in the fumigation incubator for a further 3h and the optical density (OD490nm) is determined in a photometer. By means of the OD490nm determined, the percentage inhibition is calculated relative to the control and plotted semilogarithmically in the form of a concentration-action curve. The EC50 is calculated by means of a regression analysis from the concentration-action curve using the program Graphpad Prism.

[2] = test system: ovarian adenocarcinoma cell line SKOV-3; experiment: XTT proliferation assay, SKOV-3; assay type: cell-based; details: Homo sapiens, SK-OV-3; SKOV-3 cells, 45 h incubation; read-out: XTT proliferation assay, EC50, SKOV3
From the text: as §1, §2

[3] = test system: human glioblastoma cell line SF-268; experiment: XTT proliferation assay, SF-268; assay type: cell-based; details: SF-268 cells, 45 h incubation
From the text: as §1, §2

[4] = test system: lung carcinoma cell line NCI-H460; experiment: XTT proliferation assay, NCI-H460; assay type: cell-based; details: Homo sapiens; NCI-H460 cells, 45 h incubation
From the text: as §1, §2

[5] = test system: RKOp27 human colon carcinoma cell line; experiment: Cell cycle analysis by means of the RKOp27 model (XTT); assay type: cell-based; details: RKOp27, 45 h, RKOp27 cells, read-out: XTT proliferation assay, EC50, RKOP27
From the text: as §1, §2
The assay is carried out in 96-well plates. […] By comparison of the activity on induced and noninduced cells, conclusions on the mechanism of action (cell cycle specificity) of the therapeutics can be drawn. […] are inoculated in approximately three-fold higher cell count, since division no longer takes place during the assay in comparison with uninduced cells (20000 cells/well induced, 6250 cells/well not induced). The controls are untreated cells (+/−induction). The induction is carried out with 3 μM muristerone A On the 1st day, the cells are exposed (+/− muristerone A) and incubated at 37° C. for 24h. […]

bovine tubulin = experiment: Tubulin polymerization assay; assay type: biochemical; details: average of two independent experiments; for Inhibition of tubulin polymerization, EC50, with 30% MAPs: bovine tubulin with 30% MAPs
Procedure: Selected substances were tested for inhibition of the polymerization of bovine tubulin in an in-vitro test. In this test, tubulin purified by cycles of polymerization and depolymerization is employed, which is polymerized by addition of GTP and warming. In Table 2, the EC50 values of the inhibition of polymerization of tubulin with 30% associated proteins (MAPs) and of MAP-free tubulin are indicated.
The assay is carried out based on the method of Bollag et. al. Lyophilized bovine tubulin (cytoskeleton, ML113 tubulin 30% MAPs, TL238 tubulin MAP free) is dissolved in a concentration of 2 mg/ml (ML113 in 80 mM PIPES, 0.5 mM EGTA, 2 mM MgCl2, pH6.9, 1 mM GTP) or 5 mg/ml (TL238 in 80 mM PIPES, 1 mM EGTA, 0.5 mM MgCl2, 20% (v:v) glycerol pH 6.9, 1 mM GTP). The test substances are diluted in 10% DMSO (v:v) and 5 μl of the dilutions are transferred to a 96-well microtiter plate (Nunc, half area plate). After addition of 45 μl of the tubulin solution, the polymerization is determined at 340 nm in a Spectramax 190 microtiter plate reader (Molecular devices) by means of a kinetics program at 30 sec intervals over a period of 20 min. The resulting area under curve values are used for the calculation of the inhibition with respect to the untreated control and plotted semilogarithmically in the form of a concentration-action curve. The EC50 is calculated by means of a regression analysis from the concentration-action curve using the program Graphpad Prism.

[6] = p27kip1 induced with 3 μM muristerone A (arrested)
[7] = without expression of p27kip1 (not induced)

Row | Compound | EC50 [1] [µg/mL] | EC50 [2] [µg/mL] | EC50 [3] [µg/mL] | EC50 [4] [µg/mL] | EC50 [5, 6] [µg/mL] | EC50 [5, 7] [µg/mL] | Inhibition of tubulin polymerization, EC50, without MAPs (bovine tubulin; MAP-free bovine tubulin) [µg/mL] | Inhibition of tubulin polymerization, EC50, with 30% MAPs (bovine tubulin) [µg/mL] | melting point [°C]
1 | Cc1cccc(N2CCN(C(=O)c3cccc4c3-c3ccccc3C4=O)CC2)n1 [Compound 2, 4-[4-(6-Methylpyridin-2-yl)piperazine-1-carbonyl]fluoren-9-one] | 2.59 (≈ 6.76 µM) | 0.585 (≈ 1.53 µM) | 0.939 (≈ 2.45 µM) | 0.886 (≈ 2.31 µM) | > 3.16 | 0.326 (≈ 0.85 µM) |  |  | 
2 | O=C1c2ccccc2-c2c1cccc2C(=O)N1CCN(c2cccc(O)c2)CC1 [Compound 3, 4-[4-(3-Hydroxyphenyl)piperazine-1-carbonyl]fluoren-9-one] | 4.32 (≈ 11.2 µM) | 0.397 (≈ 1.03 µM) | 0.478 (≈ 1.24 µM) | 0.853 (≈ 2.22 µM) | > 3.16 | 0.726 (≈ 1.89 µM) |  | 4.77 | 
3 | Cc1cc(C)cc(N2CCN(C(=O)c3cnnc4ccccc34)CC2)c1 [Compound 5, Cinnolin-4-yl-[4-(3,5-dimethylphenyl)piperazin-1-yl]methanone] | 1.21 (≈ 3.5 µM) | 0.496 (≈ 1.43 µM) | 0.474 (≈ 1.37 µM) | 0.348 (≈ 1 µM) | > 3.16 | 0.25 (≈ 0.722 µM) |  |  | 114
4 | CSc1nsc(SC)c1C(=O)N1CCN(c2cccc(C)n2)CC1 [Compound 7, (3,5-Bismethylsulfanylisothiazol-4-yl)-[4-(6-methylpyridin-2-yl)piperazin-1-yl]methanone] | 2.71 (≈ 7.12 µM) | 1.01 (≈ 2.65 µM) |  | 1.54 (≈ 4.05 µM) | > 3.16 | 1.2 (≈ 3.15 µM) |  |  | 

Next, values leading:

Row | EC50 [1] [µg/mL] | EC50 [2] [µg/mL] | EC50 [3] [µg/mL] | EC50 [4] [µg/mL] | EC50 [5, 6] [µg/mL] | EC50 [5, 7] [µg/mL] | Inhibition of tubulin polymerization, EC50, without MAPs (bovine tubulin; MAP-free bovine tubulin) [µg/mL] | Inhibition of tubulin polymerization, EC50, with 30% MAPs (bovine tubulin) [µg/mL] | melting point [°C] | Compound
5 | 0.555 (≈ 1.3 µM) | 0.4 (≈ 0.934 µM) | 0.309 (≈ 0.721 µM) | 0.312 (≈ 0.728 µM) | > 3.16 | 0.208 (≈ 0.485 µM) | 1.36 | 0.86 |  | COc1cc(OC)cc(N2CCN(C(=O)c3cccc4c3-c3ccccc3C4=O)CC2)c1 [Compound 1, 4-[4-(3,5-Dimethoxyphenyl)piperazine-1-carbonyl]fluoren-9-one]
6 | 0.929 (≈ 2.46 µM) | 0.287 (≈ 0.76 µM) | 0.775 (≈ 2.05 µM) | 0.439 (≈ 1.16 µM) | > 3.16 | 0.291 (≈ 0.771 µM) |  | 5.66 |  | COc1cc(OC)cc(N2CCN(C(=O)c3nccc4ccccc34)CC2)c1 [Compound 8, [4-(3,5-Dimethoxyphenyl)piperazin-1-yl]isoquinolin-1-ylmethanone]
7 | 0.613 (≈ 1.48 µM) | 0.341 (≈ 0.823 µM) | 0.692 (≈ 1.67 µM) | 0.427 (≈ 1.03 µM) | > 3.16 | 0.217 (≈ 0.524 µM) |  |  | 148 | COc1cc(OC)cc(N2CCN(C(=O)c3cccc4c3Cc3ccccc3-4)CC2)c1 [Compound 9, [4-(3,5-Dimethoxyphenyl)piperazin-1-yl]-(9H-fluoren-1-yl)methanone]
